In patent publication US20160339022A1, “TREATMENT OF NEUROBLASTOMA WITH HISTONE DEACETYLASE INHIBITORS” (Acetylon Pharmaceuticals Inc., priority 2015, published 2016):

Legend:
Wnt signaling pathway = experiment: Levels of Wnt-related signaling molecules; format: cell-based; conditions: SK-N-BE2 cells; 3 days in culture
Protocol: The levels of Wnt-related signaling molecules were assessed following treatment (SK-N-BE2 cells; 3 days in culture) with DMSO (control), Compound B alone, ATRA alone, and Compound B in combination with ATRA. b-catenin, the key signaling molecule in the Wnt pathway, is decreased by the Compound B and ATRA combination. Activated p-LRP is decreased after Compound B single agent treatment. Disheveled (Dvl) 2 & 3 is reduced by Compound B and ATRA combination treatment. Naked2 is increased by Compound B as a single agent and in combination with ATRA. Axin1 is decreased by Compound B as a single agent and in combination with ATRA.

SK-N-BE(2) cells [1] = experiment: Microarray gene expression and gene set enrichment analysis; format: cell-based, Homo sapiens; conditions: 3 μM Compound B, 1 μM ATRA or combination, microarray 48 hr, fold relative to the DMSO control group
Protocol: Gene expression from cells treated with ATRA single agent and combination of ATRA and HDAC1/2i were assessed at 2 hrs and 48 hrs of treatment (FIG. 12A). […] A function analysis of the data using the Ingenuity IPA platform was performed by Qiagen; overlap is observed in the top hits between treatment groups.
Genes that statistically increase over 2-fold relative to the DMSO control were mapped on a Venn diagram (FIG. 12B).
Neuroblastoma cell line SK-N-BE(2) cells were treated with 3 μM Compound B, 1 μM ATRA, or a combination of both at 37° C. over 2 hours (FIG. 12A) or 48 hours (FIG. 12B) and compared to the solvent (DMSO) control.

neuroblastoma cells [2] = experiment: Long term growth assay (15, 20, 25 days, Crystal Violet); format: cell-based
Protocol: Cells were cultured for 15, 20 or 25 days with the indicated treatments. Cells were imaged on an inverted microscope at days 15 and 20. On day 25, the cells were stained with Crystal Violet dye and imaged by cell phone camera Importantly, the combination of ATRA and Compound B suppressed the growth of ATRA-resistant colonies.
Cells were cultured for 15, 20 or 25 days with the indicated treatments. Cells were imaged on an inverted microscope at days 15 and 20. On day 25, the cells were stained with Crystal Violet dye and imaged.
Cells were cultured for 15, 20 or 25 days with the indicated treatments. Cells were imaged on an inverted microscope at days 15 and 20. On day 25, the cells were stained with Crystal Violet dye and imaged. It was observed that the combination activity is mediated by HDAC1/2i.
Neuroblastoma cells were treated with Compound B or the HDAC3-selective inhibitor Compound C in a long term growth assay.

AKT and c-RAF = experiment: Levels of AKT and c-RAF; format: cell-based; conditions: SK-N-BE2 cells; 3 days in culture
Protocol: The levels of AKT and c-RAF were assessed following treatment (SK-N-BE2 cells; 3 days in culture) with DMSO (control), Compound B alone, ATRA alone, and Compound B in combination with ATRA. Activated AKT is increased by ATRA and reduced in the combination setting with Compound B. Compound B as a single agent, and in combination with ATRA, decreases cRAF phosphorylation at residue Ser259.

neuroblastoma cells [3] = conditions: MTS assay, FIGS. 27 and 28
Protocol: Viable cells were measured in an MTS assay and the combination index (CI) was calculated using the Chou-Talaay method.

HDAC2 = HDAC2 (Homo sapiens, UniProt Q92769); experiment: HDAC2 activity in live cells; format: cell-based; conditions: FIG. 1C
Chain of HDAC2 (Q92769 whole entry): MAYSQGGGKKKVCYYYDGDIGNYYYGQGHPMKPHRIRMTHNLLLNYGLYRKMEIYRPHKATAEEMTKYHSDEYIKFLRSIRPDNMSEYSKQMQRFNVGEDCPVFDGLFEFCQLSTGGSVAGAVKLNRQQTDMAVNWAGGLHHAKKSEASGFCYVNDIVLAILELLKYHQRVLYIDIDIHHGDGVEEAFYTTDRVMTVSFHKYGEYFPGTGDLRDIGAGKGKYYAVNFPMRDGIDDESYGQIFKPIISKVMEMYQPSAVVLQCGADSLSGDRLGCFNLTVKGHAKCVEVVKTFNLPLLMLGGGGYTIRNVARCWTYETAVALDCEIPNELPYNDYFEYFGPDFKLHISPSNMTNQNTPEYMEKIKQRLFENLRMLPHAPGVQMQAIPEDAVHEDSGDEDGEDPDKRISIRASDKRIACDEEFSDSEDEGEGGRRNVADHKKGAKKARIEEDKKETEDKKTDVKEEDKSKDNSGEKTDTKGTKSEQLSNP

SK-N-BE(2) cells [4] = experiment: Caspase activity (Promega Caspase3/7 Glo assay); format: cell-based
Protocol: (§1) Cells were cultured for 48 hours at the indicated concentration of drug, and then cell viability was measured by Promega CellTiter Glo assay and caspase activity was measured by Promega Caspase3/7 Glo assay. […] Anti-tumor activity is evident at 3 μM of treatment.

NF-M = NF-M staining by fluorescent microscopy; format: cell-based; conditions: 7 days on glass slides
Protocol: Cells were cultured for 7 days with the indicated treatments on glass slides. Cells were fixed and stained with antibodies for NF-M and nucleus. Images were captured on a fluorescent microscope.

SK-N-BE(2) cells [5] = experiment: Cell viability (Promega CellTiter Glo assay); format: cell-based
Protocol: as §1

`Nc1ccc(-c2cccs2)cc1NC(=O)c1ccc2c(c1)cc(C1CC1)n2CCN1CCOCC1` [Compound B, N-(2-amino-5-(thiophen-2-yl)phenyl)-2-cyclopropyl-1-(2-morpholinoethyl)-1H-indole-5-carboxamide] was tested, and the Axin1 level (Wnt signaling pathway) was “decreased”, the Naked2 level (Wnt signaling pathway) was “increased” and the “activated p-LRP level” value (Wnt signaling pathway) was “decreased”. The “Gene Expression Change, ACSL3” value (SK-N-BE(2) cells [1]) was 2.23, the “Gene Expression Change, ATP7A” value (SK-N-BE(2) cells [1]) was 1.98 and the “Gene Expression Change, CDKN1A” value (SK-N-BE(2) cells [1]) was 1.93. For the same molecule, the “Gene Expression Change, CRABP2” value (SK-N-BE(2) cells [1]) was 1.18, the “Gene Expression Change, CTSH” value (SK-N-BE(2) cells [1]) was 3.05 and the “Gene Expression Change, CYP26A1” value (SK-N-BE(2) cells [1]) was 0.99. For the same molecule, the “Gene Expression Change, CYP26B1” value (SK-N-BE(2) cells [1]) was 1.87, the “Gene Expression Change, DHRS3” value (SK-N-BE(2) cells [1]) was 1.03 and the “Gene Expression Change, DUSP6” value (SK-N-BE(2) cells [1]) was 3.33. The “Gene Expression Change, ETS1” value (SK-N-BE(2) cells [1]) was 3.00, the “Gene Expression Change, HSPA5” value (SK-N-BE(2) cells [1]) was 3.78 and the “Gene Expression Change, IER3” value (SK-N-BE(2) cells [1]) was 2.33. For the same molecule, the “Gene Expression Change, NFKBIZ” value (SK-N-BE(2) cells [1]) was 1.95, the “Gene Expression Change, PCDH18” value (SK-N-BE(2) cells [1]) was 2.53 and the “Gene Expression Change, PTGER2” value (SK-N-BE(2) cells [1]) was 1.41. The “Gene Expression Change, RARB” value (SK-N-BE(2) cells [1]) was 1.14, the “Gene Expression Change, RET” value (SK-N-BE(2) cells [1]) was 1.34 and the “neuroblastoma cell growth in long term growth assay” value (neuroblastoma cells [2]; 1 μM of exposure, single agent, FIG. 11) was “reduced neuroblastoma cell growth”. For the same molecule, the “growth of ATRA-resistant colonies” value (neuroblastoma cells [2]; combination with ATRA, 15-25 days) was “strongly suppressed”, the “cRAF phosphorylation at residue Ser259” value (AKT and c-RAF) was “decreases” and the “cytotoxic effect on neuroblastoma cells as a single agent” value (neuroblastoma cells [3]) was “has a cytotoxic effect”. The “potency of inhibition of HDAC2 activity in live cells” value (HDAC2) was 500 to 3000 nM, the “caspase 3/7 induction” value (SK-N-BE(2) cells [4]; 1 μM, 48 hours) was “Minimal” and the “concentrations at which Caspase 3/7 activity is increased” value (SK-N-BE(2) cells [4]; FIG. 2B, independent of ATRA) was at least 2 µM. For the same molecule, the NF-M staining (NF-M) was “general increase in NF-M staining”, the cell death (SK-N-BE(2) cells [5]; 1 μM, 48 hours) was “Minimal” and the anti-tumor activity (SK-N-BE(2) cells [5]; 3 μM, 48 hours) was “evident”. The “concentrations causing tumor cell death” value (SK-N-BE(2) cells [5]; FIG. 2A) was at least 2 µM.
